{
  "source": "patent US20200165194A1",
  "about": "“ADDITIVE COMPOSITION FOR CULTURE MEDIUM, ADDITIVE COMPOUND FOR CULTURE MEDIUM, AND METHOD FOR CULTURE OF CELLS OR TISSUE USING SAME” (NISSAN CHEMICAL CORPORATION, priority 2017, published 2020)",
  "experiment_in_all_cases": "Various human cancer cells-1, 3D culture, WST-8 (Experimental Example 5)",
  "format_in_all_cases": "cell-based",
  "key": {"[1]": {"test_system": "human colon adenocarcinoma-derived cell line HCT116", "settings": "4 days", "text": "(§1) Various human-derived cancer cells were precultured (single layer culture) in respective media shown below. Human uterus cervix cancer-derived cell line HeLa (manufactured by American Type Culture Collection (hereinafter indicated as ATCC), 10% fetal bovine serum (FBS, manufactured by Corning)-containing Dulbecco's Modified Eagle's Medium (hereinafter abbreviated as DMEM) (manufactured by Wako Pure Chemical Industries, Ltd.)), human malignant melanoma-derived cell line A375 (manufactured by ATCC, 10% FBS-containing DMEM), human epithelial-like cell cancer-derived cell line A431 (manufactured by ATCC, 10% FBS and 1% MEM non-essential amino acid solution (MEM Non-Essential Amino Acids solution (hereinafter abbreviated as NEAA) (manufactured by Wako Pure Chemical Industries, Ltd.))-containing Eagle's Minimum Essential Medium (hereinafter abbreviated as EMEM) (manufactured by Wako Pure Chemical Industries, Ltd.)), human stomach adenocarcinoma-derived cell line AGS (manufactured by DS PHARMA BIO MEDICAL, 10% FBS-containing Ham's F-12 (manufactured by Wako Pure Chemical Industries, Ltd.)), human prostate cancer-derived cell line LNCaP clone FGC (manufactured by ATCC, 10% FBS-containing RPMI1640 (manufactured by Wako Pure Chemical Industries, Ltd.)), human colon adenocarcinoma-derived cell line HCT116 (manufactured by DS PHARMA BIO MEDICAL, 10% FBS-containing McCoy's 5A Medium (manufactured by Sigma-Aldrich)), human alveolar basal epithelial adenocarcinoma-derived cell line A549 (manufactured by DS PHARMA BIO MEDICAL, 10% FBS-containing DMEM), human prostate cancer-derived cell DU145 (manufactured by ATCC, 10% FBS-containing EMEM). The above-mentioned cells in the logarithmic growth phase were washed with PBS, a 0.25 w/v % trypsin-1 mmol/L EDTA (ethylenediaminetetraacetic acid) solution (manufactured by Wako Pure Chemical Industries, Ltd.) was added, and adherent cells were detached by incubating at 37° C. for 1-5 min. Each medium was added and the mixture was centrifuged. After resuspension in the same medium, each cell was recovered.\n(§2) The aforementioned various cells were suspended in respective deacylated gellan gum-containing or not containing media (deacylated gellan gum concentration was 0.015 w/v %, and 0.020 w/v % for RPMI1640 alone), and seeded in a 96 well low attachment U-bottom plate (manufactured by Corning, deacylated gellan gum-free medium), or a low attachment flat bottom plate (manufactured by Corning, deacylated gellan gum-containing medium) at a cell concentration of 1000-12000 cells/135 μL/well (all 3D culture). After static culture overnight in 37° C., 5% CO2 incubator, a DMSO solution of the compound to be used in the present invention was added to each medium at a final concentration of 5 μM or 10 μM. The amount of each compound solution to be added was 15 μL/well. As a control, a DMSO solution dissolved in a medium was added (DMSO final concentration 0.1%). After continuously culturing in an incubator at 37° C., 5% CO2 for 4 days, WST-8 solution (manufactured by DOJINDO LABORATORIES) was added at 15 μL/well, and the mixture was reacted in the same incubator for 1-2 hr. […] When compared with the compound no-addition (control), one showing a value of not more than 119% as -, one showing a value of not less than 120% as ◯, and one showing a value of not less than 150% as ⊚ are shown in the tenth table."}, "[2]": {"test_system": "human prostate cancer-derived cell line LNCaP clone FGC", "settings": "4 days", "text": "as §1, §2"}, "[3]": {"test_system": "human stomach adenocarcinoma-derived cell line AGS", "settings": "4 days; for viability at 5 µM / viability at 10 µM: Homo sapiens, 96 h, read-out: number of viable cells, relative value to control (100%)", "text": "as §1, §2"}, "[4]": {"test_system": "human uterus cervix cancer-derived cell line HeLa", "settings": "4 days", "text": "as §1, §2"}, "[5]": {"test_system": "human epithelial-like cell cancer-derived cell line A431", "settings": "4 days", "text": "as §1, §2"}, "[6]": {"test_system": "human malignant melanoma-derived cell line A375", "settings": "4 days; for viability at 5 µM / viability at 10 µM: Homo sapiens, A-375, 96 h, read-out: number of viable cells, relative value to control (100%)", "text": "as §1, §2"}, "[7]": {"test_system": "human prostate cancer-derived cell DU145", "settings": "4 days; for viability at 5 µM / viability at 10 µM: Homo sapiens, DU-145, 96 h, read-out: number of viable cells, relative value to control (100%)", "text": "as §1, §2"}, "[8]": {"test_system": "human alveolar basal epithelial adenocarcinoma-derived cell line A549", "settings": "4 days; for viability at 5 µM / viability at 10 µM: Homo sapiens, A549, 96 h, read-out: number of viable cells, relative value to control (100%)", "text": "as §1, §2"}, "[9]": {"settings": "low attachment U-bottom plate (gellan gum-free), 10 μM"}, "[10]": {"settings": "low attachment flat bottom plate (gellan gum medium), 5 μM"}, "[11]": {"settings": "low attachment flat bottom plate (gellan gum medium), 10 μM"}, "[12]": {"settings": "low attachment U-bottom plate (gellan gum-free), 5 μM"}},
  "note": "Read-outs that look alike come from different tables or passages of the source.",
  "data": [
    {"smiles": "CCC(=NNC(=O)C(CC)Nc1ccccc1)c1ccc(O)c(C)c1O", "note": "(stereo not drawn) [k-1:H-7]", "values": [
      {"measurement": "number of viable cells, relative value to control (100%)", "setting": "[1]; [9]", "value": "◯ (one showing a value of not less than 120% as ◯)"},
      {"measurement": "number of viable cells, relative value to control (100%)", "setting": "[1]; [10]", "value": "◯ (one showing a value of not less than 120% as ◯)"},
      {"measurement": "number of viable cells, relative value to control (100%)", "setting": "[1]; [11]", "value": "⊙"},
      {"measurement": "number of viable cells, relative value to control (100%)", "setting": "[2]; [12]", "value": "⊙"},
      {"measurement": "number of viable cells, relative value to control (100%)", "setting": "[2]; [9]", "value": "◯ (one showing a value of not less than 120% as ◯)"},
      {"measurement": "number of viable cells, relative value to control (100%)", "setting": "[3]; [12]", "value": "◯ (one showing a value of not less than 120% as ◯)"},
      {"measurement": "number of viable cells, relative value to control (100%)", "setting": "[3]; [9]", "value": "◯ (one showing a value of not less than 120% as ◯)"},
      {"measurement": "number of viable cells, relative value to control (100%)", "setting": "[3]; [11]", "value": "◯ (one showing a value of not less than 120% as ◯)"},
      {"measurement": "number of viable cells, relative value to control (100%)", "setting": "[4]; [11]", "value": "◯ (one showing a value of not less than 120% as ◯)"},
      {"measurement": "number of viable cells, relative value to control (100%)", "setting": "[5]; [12]", "value": "⊙"},
      {"measurement": "number of viable cells, relative value to control (100%)", "setting": "[5]; [9]", "value": "⊙"},
      {"measurement": "number of viable cells, relative value to control (100%)", "setting": "[5]; [10]", "value": "⊙"},
      {"measurement": "number of viable cells, relative value to control (100%)", "setting": "[5]; [11]", "value": "⊙"},
      {"measurement": "number of viable cells, relative value to control (100%)", "setting": "[6]; [9]", "value": "◯ (one showing a value of not less than 120% as ◯)"},
      {"measurement": "number of viable cells, relative value to control (100%)", "setting": "[6]; [10]", "value": "◯ (one showing a value of not less than 120% as ◯)"},
      {"measurement": "number of viable cells, relative value to control (100%)", "setting": "[7]; [12]", "value": "◯ (one showing a value of not less than 120% as ◯)"},
      {"measurement": "number of viable cells, relative value to control (100%)", "setting": "[7]; [9]", "value": "⊙"},
      {"measurement": "number of viable cells, relative value to control (100%)", "setting": "[7]; [10]", "value": "⊙"},
      {"measurement": "number of viable cells, relative value to control (100%)", "setting": "[7]; [11]", "value": "⊙"},
      {"measurement": "number of viable cells, relative value to control (100%)", "setting": "[8]; [9]", "value": "◯ (one showing a value of not less than 120% as ◯)"},
      {"measurement": "number of viable cells, relative value to control (100%)", "setting": "[8]; [10]", "value": "⊙"},
      {"measurement": "number of viable cells, relative value to control (100%)", "setting": "[8]; [11]", "value": "⊙"}
    ]},
    {"smiles": "CC/C(=N\\NC(=O)Nc1ccccc1)c1ccc(O)c(C)c1O", "note": "[k-1:H-10]", "values": [
      {"measurement": "viability at 5 µM", "setting": "[1]; Homo sapiens, HCT-116, 96 h, low attachment U-bottom plate (gellan gum-free), 5 μM, read-out: number of viable cells, relative value to control (100%)", "value": "< 119", "unit": "%"},
      {"measurement": "viability at 10 µM", "setting": "[1]; Homo sapiens, HCT-116, 96 h, low attachment U-bottom plate (gellan gum-free), 10 μM, read-out: number of viable cells, relative value to control (100%)", "value": "< 119", "unit": "%"},
      {"measurement": "viability at 5 µM", "setting": "[2]; Homo sapiens, LNCaP-Clone-FGC, 96 h, low attachment U-bottom plate (gellan gum-free), 5 μM, read-out: number of viable cells, relative value to control (100%)", "value": "120 to 150", "unit": "%"},
      {"measurement": "viability at 5 µM", "setting": "[2]; Homo sapiens, LNCaP-Clone-FGC, 96 h, low attachment flat bottom plate (gellan gum medium), 5 μM, read-out: number of viable cells, relative value to control (100%)", "value": "< 119", "unit": "%"},
      {"measurement": "viability at 10 µM", "setting": "[2]; Homo sapiens, LNCaP-Clone-FGC, 96 h, low attachment flat bottom plate (gellan gum medium), 10 μM, read-out: number of viable cells, relative value to control (100%)", "value": "< 119", "unit": "%"},
      {"measurement": "number of viable cells, relative value to control (100%)", "setting": "[2]; [9]", "value": "⊙"},
      {"measurement": "viability at 5 µM", "setting": "[3]; [12]", "value": "120 to 150", "unit": "%"},
      {"measurement": "viability at 10 µM", "setting": "[3]; [9]", "value": "< 119", "unit": "%"},
      {"measurement": "viability at 5 µM", "setting": "[3]; [10]", "value": "< 119", "unit": "%"},
      {"measurement": "viability at 10 µM", "setting": "[3]; [11]", "value": "< 119", "unit": "%"},
      {"measurement": "viability at 5 µM", "setting": "[4]; Homo sapiens, 96 h, low attachment U-bottom plate (gellan gum-free), 5 μM, read-out: number of viable cells, relative value to control (100%)", "value": "< 119", "unit": "%"},
      {"measurement": "viability at 10 µM", "setting": "[4]; Homo sapiens, 96 h, low attachment U-bottom plate (gellan gum-free), 10 μM, read-out: number of viable cells, relative value to control (100%)", "value": "< 119", "unit": "%"},
      {"measurement": "viability at 5 µM", "setting": "[5]; Homo sapiens, A-431, 96 h, low attachment U-bottom plate (gellan gum-free), 5 μM, read-out: number of viable cells, relative value to control (100%)", "value": "< 119", "unit": "%"},
      {"measurement": "viability at 10 µM", "setting": "[5]; Homo sapiens, A-431, 96 h, low attachment U-bottom plate (gellan gum-free), 10 μM, read-out: number of viable cells, relative value to control (100%)", "value": "< 119", "unit": "%"},
      {"measurement": "viability at 5 µM", "setting": "[6]; [12]", "value": "< 119", "unit": "%"},
      {"measurement": "viability at 10 µM", "setting": "[6]; [9]", "value": "120 to 150", "unit": "%"},
      {"measurement": "viability at 5 µM", "setting": "[6]; [10]", "value": "< 119", "unit": "%"},
      {"measurement": "viability at 10 µM", "setting": "[6]; [11]", "value": "< 119", "unit": "%"},
      {"measurement": "viability at 5 µM", "setting": "[7]; [12]", "value": "120 to 150", "unit": "%"},
      {"measurement": "viability at 10 µM", "setting": "[7]; [9]", "value": "< 119", "unit": "%"},
      {"measurement": "viability at 5 µM", "setting": "[7]; [10]", "value": "< 119", "unit": "%"},
      {"measurement": "viability at 10 µM", "setting": "[7]; [11]", "value": "120 to 150", "unit": "%"},
      {"measurement": "viability at 5 µM", "setting": "[8]; [12]", "value": "< 119", "unit": "%"},
      {"measurement": "viability at 10 µM", "setting": "[8]; [9]", "value": "< 119", "unit": "%"},
      {"measurement": "viability at 5 µM", "setting": "[8]; [10]", "value": "120 to 150", "unit": "%"},
      {"measurement": "viability at 10 µM", "setting": "[8]; [11]", "value": "120 to 150", "unit": "%"}
    ]}
  ]
}
